Measured values taken from PubChem BioAssay AID504726 (Broad Institute, 2011).
Activity calls are given as the source filed them.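 The calls were made as follows: active = fitted half-maximal concentration for a cytotoxic signal drop no higher than ten times the top valid dose tested; inconclusive = flat curve between -70 and -30 percent, or an unreliable fit; inactive = flat within 30 percent, signal rise, or potency beyond limit.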

Assay: HeLa cell cytotoxicity, dose response, cytotoxicity control, 24 h, cherry-picked samples (AID 504726);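 also: 0% = DMSO neutral controls and -100% = mitoxantrone positive controls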
Details: HeLa viability, CellTiter-Glo ATP luminescence, 24 h; at 35 µM (top of the series)

| SMILES | activity change, negative = cytotoxicity |
| --- | --- |
| CN(CC(=O)Nc1ccc(N2CCOCC2)cc1)C(=O)CSc1ccc(Br)cc1 | 0.641% (inactive) |
| O=C(Nc1cc(Cl)ccc1-n1cncn1)c1cccs1 | -6.29% (inactive) |
| O=C1/C(=C/c2ccco2)Oc2c1ccc(O)c2CN1CCCCC1 | 4.96% (inactive) |
| CCN(CC(=O)Nc1c(F)cccc1F)C(=O)CCCc1cccs1 | -23.5% (inactive) |
| CC(=O)Oc1ccc2c(c1)Oc1cc(OC(C)=O)ccc1C21OC(=O)c2ccccc21 | -1.71% (inactive) |
| O=C(CN1CC[C@@]2(O)CCCC[C@H]2[C@@H]1c1ccc(F)cc1)NCc1ccco1 | -5.52% (inactive) |
| COc1ccc(CCNC(=O)CNC(=O)Cn2ccc3ccccc3c2=O)cc1OC | 2.19% (inactive) |
| COc1ccc(OC2CCN(S(=O)(=O)c3ccc(OC)cc3)CC2)cc1 | -12.1% (inactive) |
| N=C1/C(=C/c2ccc(-c3cccc(C(=O)O)c3)o2)C(=O)N=C2SC(CC(=O)N3CCOCC3)=NN12 | -4.55% (inactive) |
| COc1ccc(CNC(=O)C2CCC(CNC(=O)[C@@H]3Cc4ccccc4CN3)CC2)cc1 (some centres undefined) | -2.6% (inactive) |
| O=C(CSc1nc2ccccc2[nH]1)Nc1cccc(S(=O)(=O)N2CCOCC2)c1 | 3.94% (inactive) |
| CCOC(=O)C1C2C=CC3(CN(c4cccc(Cl)c4)C(=O)C13)O2 (centres undefined) | -5.58% (inactive) |
| COc1cccc(C2CC(=O)Nc3cc4c(cc32)CCC4)c1 (centres undefined) | 14.6% (inactive) |
| O=C(O)c1ccccc1C1=Nc2ccc(O)cc2Oc2cc(O)ccc21 | -3.9% (inactive) |
| CC(/C=C1\SC(=S)N(CCCC(=O)Nc2ccc(C(=O)O)cc2)C1=O)=C\c1ccccc1 | 3.31% (inactive) |
| COc1cccc(-c2cc(C(=O)N3CCN(S(=O)(=O)c4ccccc4)CC3)[nH]n2)c1 | -17.3% (inactive) |
| COc1ccc(C(=O)N/N=C/c2ccc(OC)c(COc3ccccc3)c2)cc1 | -5.44% (inactive) |
| Cc1cc(Cl)ccc1N1C(=O)CC(NNC(=O)c2cccnc2)C1=O (centres undefined) | 5.15% (inactive) |
| COC(=O)c1ccccc1OCC(=O)N1CCN(c2ccc(Cl)cc2)CC1 | -6.81% (inactive) |
| Nc1ccc2nonc2c1[N+](=O)[O-] | 2.26% (inactive) |
| Cc1cc(-c2nnc(SCC(=O)Nc3ccccc3)n2C)no1 | -3.15% (inactive) |

| SMILES | activity change, negative = cytotoxicity |
| --- | --- |
| CCN(CC)C(=O)c1ccc2c(c1)C1C=CCC1C(C(=O)O)N2 (centres undefined) | -7.76% (inactive) |
| CN1CCN(CCCNC(=O)c2cc3c(-c4ccc(Cl)cc4)nn(C)c3s2)CC1 | -18.2% (inactive) |
| O=C1CN=C(Nc2ccccc2Cl)N1Cc1ccc2c(c1)OCO2 | -6.04% (inactive) |
| CC(C)CCN1C(=O)c2cccc3c(N)ccc(c23)C1=O | -14.7% (inactive) |
| Nc1ccccc1C(=O)N1O[C@@H]2C=C[C@H]1CC2 | -9.71% (inactive) |
| O=C(Nc1ccc(Br)cn1)c1cccc2ccccc12 | -12.4% (inactive) |
| CCOC(=O)C1=C(O)/C(=C/c2cc(C)n(-c3ccccc3)c2C)N=C1C | 3.92% (inactive) |
| CCc1cc[n+](-c2nc([O-])sc2C=O)cc1 | 0.003% (inactive) |
| COc1cccc(NC(=O)CN(C)C(=O)c2cc3ccccc3cc2OC)c1 | 6.23% (inactive) |
| NC(=S)NN=Cc1ccc(-c2ccc(S(=O)(=O)Nc3ncccn3)cc2)o1 | -14.8% (inactive) |
| O=C(O)c1cccc(-n2cccc2/C=C/[N+](=O)[O-])c1 | -0.655% (inactive) |
| COC(=O)C1=COC(C)C2CN3CCc4c([nH]c5ccccc45)C3CC12 (centres undefined) | -14.1% (inactive) |
| Cc1cc2nc3c(=O)n(C4CCCCC4)c(=O)[nH]c3nc2cc1N | 4.62% (inactive) |
| COc1ccc(OCC(=O)N2CCN(c3cccc(C(F)(F)F)c3)CC2)cc1 | -8.78% (inactive) |
| O=C(O)c1ccc(-n2cccc2/C=C2/NC(=O)N(c3cccc(Cl)c3)C2=O)cc1 | -3.84% (inactive) |
| CCOC(=O)C1=C(COC(=O)c2ccc([N+](=O)[O-])s2)NC(=O)NC1C (centres undefined) | -1% (inactive) |
| Cc1cc(C)n(CC(=O)NNC(=O)CC(C)c2ccccc2)n1 (centres undefined) | -9.44% (inactive) |
| Cc1ccc(N2CC(C(=O)Nc3nnc(SCC(=O)Nc4nc(C)cs4)s3)CC2=O)cc1 (centres undefined) | -3.6% (inactive) |
| Cc1nn(CC(=O)c2ccc(Br)s2)c(C)c1[N+](=O)[O-] | -2.98% (inactive) |
| Nc1nc(SCC(=O)N2CCCCC2)[nH]c(=O)c1NC(=O)c1cccs1 | -0.747% (inactive) |
| O=C(CN(Cc1ccccc1F)C(=O)c1csnn1)NCc1ccc2c(c1)OCO2 | -9.28% (inactive) |

| SMILES | activity change, negative = cytotoxicity |
| --- | --- |
| CCN(C(=O)COC(=O)CNS(=O)(=O)c1ccc(SC)c([N+](=O)[O-])c1)C1CCCCC1 | -5.61% (inactive) |
| COc1ccc(NS(=O)(=O)c2cccc3ccccc23)cc1 | -7.48% (inactive) |
| O=C(O)CCCN1C(=O)/C(=C/C=C/c2ccco2)SC1=S | -9.04% (inactive) |
| COc1ccc(OC)c(NC(=O)c2nnn(Cc3ccc(Br)cc3F)c2N)c1 | -9.89% (inactive) |
| Cc1nn(Cc2c(F)c(F)c(F)c(F)c2F)c(C)c1NC(=O)c1ccnn1C | -4.82% (inactive) |
| Cc1ccccc1NC(=O)CN1C(=O)N/C(=C\c2cccn2-c2cccc(C(=O)O)c2)C1=O | -8.21% (inactive) |
| Cc1ccc(S(=O)(=O)Nc2ccc(Br)cc2C(NCC(=O)O)c2ccccc2)cc1 (centres undefined) | 0.422% (inactive) |
| CC1=NN(c2cccc(C(=O)O)c2)C(=O)/C1=C\C=C\c1ccco1 | -5.55% (inactive) |
| C=CCNC(=O)c1cn(CC)c2cc(N3CCN(C(=O)c4ccco4)CC3)c(F)cc2c1=O | 6.14% (inactive) |
| CCc1nnc(NC(=O)c2cccc(S(=O)(=O)N(C)c3ccccc3)c2)s1 | -7.23% (inactive) |
| CCn1c(CN2CCCCC2)nc2cc(S(=O)(=O)N3CCCCC3)ccc21 | -13.7% (inactive) |
| C=C1c2cccc(O)c2C(O)=C2C(=O)[C@]3(O)C(O)=C(C(N)=O)C(=O)[C@@H](N(C)C)[C@@H]3[C@@H](O)[C@H]12 | -2.76% (inactive) |
| CN1CC=C2C(C#N)=C(N)C(C#N)(C#N)[C@H](c3ccoc3)[C@H]2C1 | 0.209% (inactive) |
| Cc1c(C)n(CCC(=O)O)c2ccccc12 | -6.21% (inactive) |
| O=C(O)Cc1c[nH]c2cccc(O)c12 | -14.7% (inactive) |
| CCNc1nc(NC(C)C)nc(NS(=O)(=O)c2ccc(N)cc2)n1 | -6.72% (inactive) |
| O=C(c1cccc(S(=O)(=O)NCc2ccccc2)c1)N1CCN(c2ccccc2Cl)CC1 | 0.089% (inactive) |
| Nc1ccc(-c2c3ccc(=O)cc-3oc3cc(O)ccc23)cc1C(=O)O | -1.65% (inactive) |
| CCOC(=O)C1CCCN(c2ccc([N+](=O)[O-])c3nonc23)C1 (centres undefined) | -8.2% (inactive) |
| CCN(CC)C(=S)SC1CCCCN(C(=O)c2ccccc2)C1=O (centres undefined) | -6.6% (inactive) |
| CCN(CC)S(=O)(=O)N1CCN(S(=O)(=O)N2CCOCC2)CC1 | 1.89% (inactive) |

| SMILES | activity change, negative = cytotoxicity |
| --- | --- |
| CCOC(=O)C1CCCN(C(=O)C2c3ccccc3Oc3ccccc32)C1 (centres undefined) | -6.62% (inactive) |
| COc1ccccc1CNC(=O)C(=O)NCC1CCCN1S(=O)(=O)c1cccs1 (centres undefined) | -4.86% (inactive) |
| COc1ccc(-c2cc(C(F)(F)F)n3ncc(C(=O)N4CCCCC4c4cccnc4)c3n2)cc1 (centres undefined) | -6.34% (inactive) |
| Cc1ccc(N(CC(=O)N2CCOCC2)S(C)(=O)=O)cc1 | -3.08% (inactive) |
| COc1ccc(-c2cnc3n2CCCCC3)cc1 | 0.279% (inactive) |
| O=c1cc(-c2ccc(O)c(O)c2)oc2cc(O[C@@H]3O[C@H](CO)[C@@H](O)[C@H](O)[C@H]3O)cc(O)c12 | -8.55% (inactive) |
| Cc1cnc(NC(=O)Cc2c[nH]c3ccccc23)s1 | -3.77% (inactive) |
| FC(F)(F)c1nnc(-c2ccccc2)nc1N1CCCC1 | -13.4% (inactive) |
| CCn1c(O)c(N=Nc2cccc(S(=O)(=O)N3CCOCC3)c2)c(=O)n(CC)c1=S | 7.72% (inactive) |
| CCCC1(C2CCCC2)NC(=O)NC1=O (centres undefined) | 0.78% (inactive) |
| Cc1[nH][nH]c(=O)c1C(c1ccc(-c2ccc(Cl)c(C(=O)O)c2)o1)c1c(C)[nH][nH]c1=O | -3.88% (inactive) |
| COc1cc(CN2CC(=O)N(c3cc(Cl)ccc3C)C2=S)cc(OC)c1OC | -7.61% (inactive) |
| OCCN(CCO)c1nc(N2CCCCC2)c2nc(N(CCO)CCO)nc(N3CCCCC3)c2n1 | -1.48% (inactive) |
| COc1ccc(/C=C/c2cc(C(F)(F)F)[nH]c(=O)n2)cc1OC | -6.08% (inactive) |
| COc1ccc(C2C(C(=O)c3cccs3)=C(O)C(=O)N2c2nncs2)cc1 (centres undefined) | -14.2% (inactive) |
| O=C(O)/C(=C\c1cccs1)Sc1nnc(-c2ccc(F)cc2)o1 | 0.075% (inactive) |
| Clc1ccc(C2=CC(c3ccco3)n3ncnc3N2)cc1 (centres undefined) | -16.1% (inactive) |
| Cc1ccc(CSc2ncnc3onc(C)c23)cc1 | -13.2% (inactive) |
| C/C(=N\NC(=O)CCc1c(C)n[nH]c1C)c1ccc([N+](=O)[O-])cc1 | 6.48% (inactive) |
| O=c1[nH]nc(CSCc2ccccc2Cl)[nH]1 | -3.66% (inactive) |
| CCCc1nnc(NC(=O)CCC(=O)NCc2ccc(OC)cc2)s1 | -1.54% (inactive) |
